In patent US20230065640A1, “COMBINATION THERAPIES AND BIOMARKERS FOR TREATING B-CELL LYMPHOMAS” (priority 2020, published 2023):

What was measured:
[1] = test system: SU-DHL-10, OCI-LY-7 and SU-DHL-2 cells; assay: Cell proliferation XTT assay in DLBCL cells with or without MYCC rearrangement; assay type: cell-based, Human; conditions: DLBCL with a MYCC rearrangement versus without, 72 h incubation, FIG. 4
Protocol: (§1) Cell Culture. Human diffuse large B-cell lymphoma cells, SU-DHL-10, SU-DHL-4, OCI-LY-7 and SU-DHL-2 cells (purchased from Cell Bank, Shanghai Institutes for Biological Sciences, Chinese Academy of Sciences) were cultured in RPMI 1640 (Hyclone™, SH30809.01B) supplemented with 10% fetal bovine serum (GEMINI, 900-108). Cultures were incubated at 37° C., in 5% CO2.
Cell Treatment and proliferation assay. SU-DHL-10, OCI-LY-7 and SU-DHL-2 cell were seeded in 96-well plates (Corning-Costar, 3599) at 40000 cells/well in 200 μl culture medium treated with YM155 (50, 25, 12.5, 2.5, 1, 0.5 nM; Apex BIO, A4221) or DMSO (0.1%; Amresco, 67-68-5). After 72 h incubation, cell proliferation was measured by XTT assay (Cell Proliferation Kit II XTT, sigma, 11465015001) according to manufacturer's protocols. Briefly, after YM155 treatment, added to each well 50 μl of the XTT labeling mixture, then incubated the micro-plate for 4 h in a humidified atmosphere. The absorbance of wavelength was determined at 490 nm (OD490) and 650 nm (OD650) respectively by SpectraMax 190. The IC50 was calculated by the value of OD490. OD650.

[2] = test system: DLBCL cells with a MYCC rearrangement; assay: Apoptosis assay (Annexin V/PI staining); assay type: cell-based, Human; conditions: 24 hours post-treatment, FIG. 5A
Protocol: as §1
Apoptosis Assay. Apoptosis was detected by Annexin V/PI staining kit (Thermo Fisher) according to the manufacturer's instructions. Briefly, cells were plated at a density of 5×10^5 cells/mL in RPMI 1640 media with 2% FBS with desired concentrations of YM155. At 24 hours post-treatment the cells were harvested and tested for apoptosis by Annexin V and PI staining. Cell analysis was performed using a FACSAria (BD).

[3] = test system: c-MYC; assay: Western blot of c-MYC in DLBCL cells; assay type: cell-based, Human; conditions: DLBCL cells with a MYCC rearrangement; treated 24 hours; FIG. 5B
Protocol: as §1
Western blot. SU-DHL-10, OCI-LY-7 and SU-DHL-2 cells were treated with/without YM155 for 24 hours. Cell lysates were prepared in lysis buffer (Thermo Fisher). Protein concentrations were determined using a Bio-Rad protein assay (Bio-Rad). 20 μg protein was loaded in 4%-12% SDS-PAGE (Invitrogen), and transferred to nitrocellulose. Membranes were blocked in 5% BSA (Sigma) for 1 hour, incubated with the primary antibody overnight at 4° C., washed and incubated with the appropriate horseradish-conjugated secondary antibody (1:5000, Cell Signaling Technology) for 1 hour at room temperature. An enhanced chemiluminescent kit (Beyotime Biotechnology) was used to visualize the signal. The following antibodies were used: c-MYC (Abcam) and GAPDH (Beyotime Biotechnology).

[4] = test system: DLBCL with a MYCC rearrangement; assay: CDX mouse model of DLBCL with a MYCC rearrangement; assay type: in vivo, BALB/C-nu mice
Protocol: (§2) Tumor Xenograft models (CDX models). BALB/C-nu mice (6-8 weeks, SPF Biotechnology Co., Ltd) were inoculated by s.c. injection of tumor cell (SU-DHL-10, SU-DHL-4 or OCI-LY-7) suspension containing Matrigel (Corning)/PBS at a ratio of 1:1. 1×10^7 cells were inoculated. When tumors reached 150-200 mm^3, treatment was initiated. Tumor growth was monitored twice a week. Tumor volume was calculated by applying the following equation: tumor volume=½(length×width^2).

[5] = test system: DLBCL with a MYCC rearrangement and BCL2 expression (MYCC/BCL2 associated lymphoma); assay: CDX mouse model of DLBCL with a MYCC rearrangement and BCL2 expression; assay type: in vivo, BALB/C-nu mice; conditions: FIG. 8; alone and in combination with BCL2 inhibitor (ABT199)
Protocol: as §2

[6] = test system: SU-DHL-4 (double hit (MYCC/BCL2), CD20 positive); assay: SU-DHL-4 CDX model; assay type: in vivo, BALB/C-nu mice; conditions: FIG. 10; b/c-nu; PC-002 5 mg/kg i.p., alone and in combination with CHOP or RCHOP
Protocol: CHOP: cyclophosphamide, 40 mg/kg, QW*3, D1, i.v., doxorubicin, 3.3 mg/kg, QW*3, D1, i.v., vincristine, 0.5 mg/kg, QW*3, D1, i.v., prednisone, 0.2 mg/kg, QD*5*3W,D1-5, p.o. RCHOP: rituximab, 25 mg/kg, QW*3, i.p., cyclophosphamide, 40 mg/kg, QW*3, D1, i.v., doxorubicin, 3.3 mg/kg, QW*3, D1, i.v., vincristine, 0.5 mg/kg, QW*3, D1, i.v., prednisone, 0.2 mg/kg, QD*5*3W,D1-5, p.o. PC-002: 5 mg/kg, QD*5*3w, D1-5, i.p.

[7] = test system: survivin; conditions: Minematsu et al. 2008; cited from earlier work
[8] = test system: prostate, pancreatic, and lung cancer; conditions: cited from earlier work
[9] = FIG. 6, alone and in combination with PARP inhibitor (olaparib)

Compound | sensitivity of DLBCL to YM155 (cell proliferation) [1] | apoptosis of DLBCL cells [2] | MYCC expression [3] | effect on tumor growth [4, 9] | effect on tumor growth ([4]; FIG. 7, alone and in combination with CHOP) | effect on tumor volume ([4]; FIG. 9, b/c-nu, PC-002 5 mg/kg i.p., alone and in combination with CHOP) | effect on tumor growth [5] | effect on tumor volume [6] | survivin expression [7] | antitumor activity ([8]; Minematsu et al. 2008) | anti-tumor effects in various in vivo cancer models ([8]; prostate, pancreatic, and lung cancer, Nakahara et al. 2007, Na et al. 2012)
1-(2-Methoxyethyl)-2-methyl-4,9-dioxo-3-(pyrazin-2-ylmethyl)-4,9-dihydro-1H-naphtho[2,3-d] imidazolium bromide [YM155] | more sensitive | induces apoptosis | lowers the MYCC expression | tumor regression | tumor regression | significant effect on reducing tumor volume | complete tumor regression | profound effect on reducing tumor volume, essentially eliminating tumor growth | down-regulation of survivin | potent antitumor activity | exerts anti-tumor effects
CC1(C)CCC(CN2CCN(c3ccc(C(=O)NS(=O)(=O)c4ccc(NCC5CCOCC5)c([N+](=O)[O-])c4)c(Oc4cnc5[nH]ccc5c4)c3)CC2)=C(c2ccc(Cl)cc2)C1 [ABT199] | – | – | – | – | – | – | no significant effect on tumor growth | – | – | – | –
O=C(c1cc(Cc2n[nH]c(=O)c3ccccc23)ccc1F)N1CCN(C(=O)C2CC2)CC1 [olaparib] | – | – | – | no significant effect on tumor growth | – | – | – | – | – | – | –
